How the values were obtained:
[1] = tested on: insulin-resistant mature adipocytes; experiment: Enhancing action on glucose uptake into insulin-resistant (TNF-α treated) mature adipocytes; assay type: cell-based; conditions: 4-hydroxyderricin 30 μM; mature adipocytes treated with mouse-derived TNF-α 10 or 20 ng/mL
Experimental: It is said that tumor necrosis factor a (TNF-α) is deeply involved in insulin resistance, and it has been known that a signal from an insulin receptor is inhibited by treating mature adipocytes with TNF-α, so that a reaction of glucose uptake is inhibited by insulin stimulation (Proc. Natl. Acad. Sci. USA, vol. 91, p 4854-4858 (1994)). The enhancing action by 4-hydroxyderricin on glucose uptake into mature adipocytes in which insulin resistance was induced by TNF-α was evaluated.
The induction of differentiation into mature adipocytes was carried out in the same manner as in the method described in Example 83, except that after preparation of the mature adipocytes, in order to induce insulin resistance in these mature adipocytes, mouse-derived TNF-α (manufactured by Cosmobio, 3410) was added to the medium so as to have a final concentration of 10 ng/mL or 20 ng/mL, and the adipocytes were cultured for additional 2 days. […]
The enhancing action on glucose uptake was evaluated in the same manner as in the method described in Example 83. For each of the cells prepared in item (1) of Example 95 mentioned above, there were set a group containing 4-hydroxyderricin at a final concentration of 30 μM, a group without addition of the sample as a negative control, and a group with treatment with insulin, and the radioactivity of each group was determined. […]

[2] = tested on: type II diabetes model mice; experiment: Amelioration effects on diabetes of 4-hydroxyderricin (blood glucose level); assay type: in vivo; conditions: male KK-Ay mice
Experimental: Pathological amelioration effects of 4-hydroxyderricin were examined using type II diabetes model mice. Experiments were carried out with five male 12-week old KK-Ay mice (CLEA Japan, Inc.) per group. 4-Hydroxyderricin was suspended or dissolved in a 0.5% (w/v) carboxymethyl cellulose solution (CMC) so as to have a concentration of 4% (w/v), and the suspension or solution was forcibly orally administered to the mice once a day at 200 mg/kg for consecutive days. CMC was administered to each mice in the control group at 5 mL/kg in the same manner. On the day before the beginning of administration, on the fourth day and on the eighteenth day, blood was collected from the veins of mouse tails, and the blood glucose level was determined with a simple blood glucose meter, ACCU-CHEK Compact (Roche Diagnostics K.K.). […] Here, during the experimental period, no changes were found in body weight and general symptoms.

[3] = tested on: mature adipocytes which were induced to be differentiated by xanthoangelol; experiment: Glucose uptake into adipocytes induced to be differentiated by xanthoangelol; assay type: cell-based; conditions: stimulation with 4-hydroxyderricin 20 μM; adipocytes differentiated with xanthoangelol 10 μM
Experimental: Adipocytes which were induced to be differentiated by xanthoangelol were obtained, and thereafter it was confirmed on whether the glucose uptake into the adipocytes is enhanced by stimulation with insulin or 4-hydroxyderricin.
Specifically, as a sample, there was set a group with addition of a dimethyl sulfoxide solution of xanthoangelol having a final concentration of 10 μM. Thereafter, the medium and the sample were exchanged in the same manner as in the method described in Example 82 except that 3-isobutyl-1-methylxanthine having a final concentration of 0.5 mM was added concurrently with the addition of dexamethasone, to give mature adipocytes which were induced to be differentiated by xanthoangelol.
Next, the amount of 2-deoxyglucose uptake into the mature adipocytes during the stimulation with insulin or 4-hydroxyderricin in the resulting mature adipocytes was determined in the same manner as in the method described in Example 83.
Specifically, there were set the group without the addition and the group with addition of insulin having a final concentration of 1 μg/mL or 4-hydroxyderricin having a final concentration of 20 μM. Thereafter, the amount of 2-deoxy-[1,2-^3H(N)]-glucose uptake into the adipocytes was determined in the same manner.

KK-Ay mice = experiment: Glucose tolerance test, xanthoangelol; assay type: in vivo; conditions: female KK-Ay mice, 200 mg/kg oral once a day
Experimental: Amelioration effects for glucose tolerance of xanthoangelol were examined using female 12-week old KK-Ay mice. Xanthoangelol which was previously suspended or dissolved in an olive oil in a concentration of 4% (w/v) was forcibly orally administered to a group to be administered with xanthoangelol at 200 mg/kg once a day for consecutive days. An olive oil was administered to the mice in the control group at 5 mL/kg in the same manner. The mice were fasted over one night spanning the sixteenth day to the seventeenth day from administration, and the glucose tolerance test was carried out in the same manner as in Example 91.

[4] = tested on: type II diabetes model mice; experiment: Amelioration effects on diabetes of xanthoangelol (blood glucose level, serum insulin); assay type: in vivo; conditions: female KK-Ay mice
Experimental: Pathological amelioration effects of xanthoangelol were examined using type II diabetes model mice. Experiments were carried out with five female 12-week old KK-Ay mice (CLEA Japan, Inc.) per group. Xanthoangelol was suspended or dissolved in an olive oil so as to have a concentration of 4% (w/v), and the suspension or solution was forcibly orally administered to the mice once a day at 200 mg/kg for consecutive days. The olive oil was administered to mice in the control group at 5 mL/kg in the same manner. On the day before the beginning of administration, on the fourth day and on the twenty-second day, the blood glucose level was determined in the same manner as in Example 88. In addition, on the twenty-second day, blood was simultaneously collected from abdominal cava, and the insulin concentration in serum was determined with Lebis Insulin Kit (Shibayagi Co., Ltd.). […] During the experimental period, no changes were found in body weight and general symptoms.

[5] = 200 mg/kg oral once a day in CMC, mean ± standard error
[6] = 200 mg/kg oral once a day, experimental period
[7] = 200 mg/kg oral once a day in olive oil, mean ± standard error

| SMILES | enhancing action on glucose uptake, increase without TNF-α defined as 100% [1] | blood glucose level (in words) ([2]; 200 mg/kg oral once a day) | Blood Glucose Level, Eighteenth Day [2, 5] | Blood Glucose Level, Fourth Day [2, 5] | changes in body weight and general symptoms [2, 6] | Blood Glucose Level, Previous Day ([2]; day before beginning of administration, 200 mg/kg oral once a day in CMC, mean ± standard error) | 2-deoxy-[1,2-3H(N)]-glucose uptake [3] | action on the elevation in the blood glucose level after the glucose tolerance (in words) (KK-Ay mice) | Blood Glucose Level, Before Glucose Tolerance (KK-Ay mice; seventeenth day, fasted) | Blood Glucose Level, 30 Minutes After Tolerance (KK-Ay mice; seventeenth day, fasted, glucose 1 g/kg i.p.) | action of ameliorating insulin resistance ([4]; 200 mg/kg oral once a day) | blood glucose level and insulin concentration (in words) ([4]; 200 mg/kg oral once a day) | Blood Glucose Level, Fourth Day [4, 7] | Blood Glucose Level, Twenty-second Day [4, 7] | changes in body weight and general symptoms [4, 6] | Blood Glucose Level, Previous Day ([4]; day before beginning of administration, 200 mg/kg oral once a day in olive oil, mean ± standard error) | Insulin (concentration in serum) ([4]; twenty-second day, 200 mg/kg oral once a day in olive oil, mean ± standard error) |
| --- | --- | --- | --- | --- | --- | --- | --- | --- | --- | --- | --- | --- | --- | --- | --- | --- | --- |
| COc1ccc(C(=O)/C=C/c2ccc(O)cc2)c(O)c1CC=C(C)C [4-Hydroxyderricin, 4,2′-Dihydroxy-3′-prenyl-4′-methoxychalcone] | around 80% | lowered | 191 ± 10 mg/dL | 187 ± 9 mg/dL | no changes | 262 ± 14 mg/dL | enhancement of 2-deoxy-[1,2-^3H(N)]-glucose uptake | – | – | – | – | – | – | – | – | – | – |
| CC(C)=CCC/C(C)=C/Cc1c(O)ccc(C(=O)/C=C/c2ccc(O)cc2)c1O [Xanthoangelol, 4,2′,4′-Trihydroxy-3′-geranylchalcone] | – | – | – | – | – | – | – | suppressive action | 106 ± 7 mg/dL | 234 ± 15 mg/dL | action of ameliorating insulin resistance was found | lowered | 192 ± 16 mg/dL | 209 ± 8 mg/dL | no changes | 249 ± 13 mg/dL | 31 ± 7 ng/mL |

From US20070092551A1, “Therapeutic agent” (TAKARA BIO INC., priority 2003, published 2007)
